Results as given in ChEMBL document CHEMBL3997848 (Bioorg Med Chem, 2017).
Square brackets hold non-standard residues; d marks the D form. Peptide text beside a SMILES is read from it.

Legend:
[1] = molecular target: Opioid receptor, delta 1b (Danio rerio, UniProt B3DH72); assay: Displacement of [3H]DPN from zebrafish delta 1b opioid receptor expressed in HEK293 cell membranes after 4 hrs by scintillation counting method
[2] = molecular target: Mu opioid receptor-like OR2 (Danio rerio, UniProt B8JHS2); assay: Displacement of [3H]DPN from zebrafish mu opioid receptor expressed in HEK293 cell membranes after 1 hr by scintillation counting method
Mu opioid receptor-like OR2, sequence (B8JHS2 whole entry): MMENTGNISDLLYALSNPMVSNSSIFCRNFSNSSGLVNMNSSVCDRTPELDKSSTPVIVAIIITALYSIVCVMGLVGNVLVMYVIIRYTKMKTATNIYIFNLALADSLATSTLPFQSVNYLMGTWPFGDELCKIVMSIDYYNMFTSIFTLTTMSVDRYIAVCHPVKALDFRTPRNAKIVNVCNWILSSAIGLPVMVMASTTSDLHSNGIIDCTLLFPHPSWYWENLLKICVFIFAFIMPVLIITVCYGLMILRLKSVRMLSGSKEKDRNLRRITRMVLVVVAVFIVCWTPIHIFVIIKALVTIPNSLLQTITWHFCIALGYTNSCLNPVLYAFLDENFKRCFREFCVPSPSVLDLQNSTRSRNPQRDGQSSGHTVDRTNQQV

[3] = molecular target: Opioid receptor homologue (Danio rerio, UniProt A3QJX7); assay: Displacement of [3H]DPN from zebrafish delta 1a opioid receptor expressed in HEK293 cell membranes after 1 hr by scintillation counting method
Opioid receptor homologue, sequence (A3QJX7 whole entry): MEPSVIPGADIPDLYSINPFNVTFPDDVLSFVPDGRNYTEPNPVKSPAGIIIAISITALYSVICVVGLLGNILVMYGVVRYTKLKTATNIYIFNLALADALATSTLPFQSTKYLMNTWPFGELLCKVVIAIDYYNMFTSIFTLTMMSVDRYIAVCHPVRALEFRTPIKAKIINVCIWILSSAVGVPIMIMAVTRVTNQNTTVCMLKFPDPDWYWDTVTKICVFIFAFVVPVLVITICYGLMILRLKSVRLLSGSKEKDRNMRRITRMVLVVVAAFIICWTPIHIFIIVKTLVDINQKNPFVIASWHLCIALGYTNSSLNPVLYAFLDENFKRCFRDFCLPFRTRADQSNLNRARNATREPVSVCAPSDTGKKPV

[4] = test system: Mus musculus; assay: Antinociceptive activity in C57BL6/J mouse assessed as analgesia at 5 mg/kg, ip measured after 30 mins by tail flick test (reference value: -7%); assay type: functional
[5] = test system: Mus musculus; assay: Antinociceptive activity in C57BL6/J mouse assessed as analgesia at 5 mg/kg, ip measured after 60 mins by tail flick test (reference value: 3%); assay type: functional
[6] = test system: Mus musculus; assay: Antinociceptive activity in C57BL6/J mouse assessed as analgesia at 5 mg/kg, ip measured after 120 mins by tail flick test (reference value: -8%); assay type: functional
[7] = test system: Mus musculus; assay: Antinociceptive activity in C57BL6/J mouse assessed as analgesia at 5 mg/kg, ip measured after 90 mins by tail flick test (reference value: 10%); assay type: functional
[8] = test system: Mus musculus; assay: Antinociceptive activity in C57BL6/J mouse assessed as analgesia at 8 mg/kg, ip measured after 30 mins by tail flick test (reference value: -7%); assay type: functional
[9] = test system: Mus musculus; assay: Antinociceptive activity in C57BL6/J mouse assessed as analgesia at 8 mg/kg, ip measured after 90 mins by tail flick test (reference value: 10%); assay type: functional
[10] = test system: Mus musculus; assay: Antinociceptive activity in C57BL6/J mouse assessed as analgesia at 8 mg/kg, ip measured after 120 mins by tail flick test (reference value: -8%); assay type: functional
[11] = test system: Mus musculus; assay: Antinociceptive activity in C57BL6/J mouse assessed as analgesia at 8 mg/kg, ip measured after 60 mins by tail flick test (reference value: 3%); assay type: functional

Opioid receptor, delta 1b, sequence (B3DH72 whole entry): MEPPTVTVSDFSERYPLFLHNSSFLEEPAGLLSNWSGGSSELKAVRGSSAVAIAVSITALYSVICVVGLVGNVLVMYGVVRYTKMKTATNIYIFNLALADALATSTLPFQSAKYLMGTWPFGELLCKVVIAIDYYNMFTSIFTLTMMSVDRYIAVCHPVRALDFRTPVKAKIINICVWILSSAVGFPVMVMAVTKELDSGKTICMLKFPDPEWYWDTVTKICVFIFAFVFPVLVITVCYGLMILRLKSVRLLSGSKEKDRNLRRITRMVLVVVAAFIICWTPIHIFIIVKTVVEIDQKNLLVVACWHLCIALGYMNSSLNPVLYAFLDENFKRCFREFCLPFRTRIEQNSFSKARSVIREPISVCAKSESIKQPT

SMILES | Ki [1] | Ki [2] | Ki [3] | Activity [4] | Activity [5] | Activity [6] | Activity [7] | Activity [8] | Activity [9] | Activity [10] | Activity [11]
CSCC[C@@H](NC(=O)[C@@H](N)Cc1ccc(O)cc1)C(=O)NCC(=O)N[C@@H](Cc1ccccc1)C(=O)N1C[C@@H](O[C@@H]2O[C@H](CO)[C@H](O)[C@H](O)[C@H]2O)C[C@H]1C(N)=O | 518 nM | 383 nM | 468 nM |  |  |  |  |  |  |  | 
CSCC[C@@H](NC(=O)[C@@H](N)Cc1ccc(O)cc1)C(=O)NCC(=O)N[C@@H](Cc1ccccc1)C(=O)N1C[C@@H](O[C@@H]2O[C@H](CO)[C@@H](O)[C@H](O)[C@H]2O)C[C@H]1C(N)=O | 159 nM | 313 nM | 389 nM |  |  |  |  |  |  |  | 
CN1CC[C@]23c4c5ccc(O)c4O[C@H]2[C@@H](O)C=C[C@H]3[C@H]1C5 [MORPHINE] |  |  |  | 30% | 51% | 30% | 45% |  |  |  | 
CSCC[C@@H](NC(=O)[C@@H](N)Cc1ccc(O)cc1)C(=O)NCC(=O)N[C@@H](Cc1ccccc1)C(=O)N1C[C@@H](O[C@@H]2O[C@H](CO)[C@@H](O[C@H]3O[C@@H](CO)[C@@H](O)[C@@H](O)[C@@H]3O)[C@H](O)[C@H]2O)C[C@H]1C(N)=O | 559 nM | 203 nM | 635 nM |  |  |  |  |  |  |  | 
CSCC[C@H](NC(=O)[C@H](Cc1ccccc1)NC(=O)CNC(=O)CNC(=O)[C@@H](N)Cc1ccc(O)cc1)C(=O)O | 45 nM | 684 nM |  |  |  |  |  |  |  |  | 
CSCC[C@@H](NC(=O)[C@@H](N)Cc1ccc(O)cc1)C(=O)NCC(=O)N[C@@H](Cc1ccccc1)C(=O)N1CCC[C@H]1C(N)=O (H-Y[dM]GFP-NH2) | 256 nM | 269 nM | 566 nM |  |  |  |  |  |  |  | 
CSCC[C@@H](NC(=O)[C@@H](N)Cc1ccc(O)cc1)C(=O)NCC(=O)N[C@@H](Cc1ccccc1)C(=O)N1C[C@@H](O[C@@H]2O[C@H](CO)[C@@H](O[C@H]3O[C@@H](CO)[C@H](O)[C@@H](O)[C@@H]3O)[C@H](O)[C@H]2O)C[C@H]1C(N)=O | 528 nM | 223 nM | 843 nM |  |  |  |  |  |  |  | 
CSCC[C@@H](NC(=O)[C@@H](N)Cc1ccc(O)cc1)C(=O)NCC(=O)N[C@@H](Cc1ccccc1)C(=O)N1C[C@@H](O[C@H]2O[C@H](CO)[C@@H](O)[C@H](O)[C@@H]2O)C[C@H]1C(N)=O | 536 nM | 239 nM | 609 nM | 40% | 60% | 40% | 50% | 45% | 35% | 45% | 62%
